From patent publication US11179395B2, “Treating melanoma with mebendazole and a mitogen-activated kinase inhibitor” (GEORGETOWN UNIVERSITY, priority 2017, dated 2021)
Read-outs that look alike come from different tables or passages of the source.

Columns and labels:
[1] = Pharmacokinetic studies of MBZ formulations; format: in vivo, athymic mice; details: for mean plasma exposure at 8 hours / concentration at 8 h: MBZ 40 mg/kg oral gavage; for concentration at 8 h: athymic, mouse, plasma, oral, 40 mg/kg, read-out: mean plasma exposure at 8 hours
Experimental: In pharmacokinetic (PK) studies, MBZ was administered to athymic mice (described below) by oral gavage at a dose of 40 mg/kg in three different formulations (methylcellulose, oleic acid, or sesame oil/PBS) or methylcellulose in combination with cimetidine. MBZ and two metabolites, 2-Amino-5-benzoyl-1H bezimidizole (2ABB), and rac Dihydro MBZ (RDM), were quantified in mouse plasma as described in Bai et al., “Brain Penetration and Efficacy of Different Mebendazole Polymorphs in a Mouse Brain Tumor Model,” Clin. Cancer Res. 21:3462-3470 (2015)).

[2] = Pharmacokinetic studies of MBZ formulations; format: in vivo, athymic mice; details: MBZ 40 mg/kg oral gavage; for lower exposure with trametinib co-administration vs. methylcellulose: 8 hours
[3] = system: MEK/ERK pathway in BAK cells; test: Immunoblot analysis of cultured cells; format: cell-based, Human; details: 100 nM; for pMEK1/2 S217/221 phosphorylation: combination within 30 min
From the text: FIGS. 5A-H are RPPA (A) and immunoblot (B-E) analyses that reveal suppression of the MAPK pathway, including ERK and its downstream substrates in melanoma cells exposed to MBZ+trametinib. A. […] Cell extracts derived at indicated times were subjected to RPPA analysis, and unsupervised hierarchal clustering was used to generate a heat map as described in Materials and Methods. […] F)-H) Immunoblot experiments were repeated with an additional melanoma cell line BUL, which harbors the same NRASQ61K mutation. […] All immunoblots were then reprobed with GAPDH as loading control. SDS-PAGE and transfer of separated proteins to nitrocellulose membranes were performed according to standard procedures. Membranes were stained with Ponceau S (0.1%) to verify equal loading and transfer of proteins, and then incubated with antibodies specific for pERK1/2 T202/Y204, pMEK1/2 S217/221, pBAD S-112, total BAD, total ERK1/2, total MEK1/2, BCL2 (Santa Cruz Biotech), BCLXL (Santa Cruz Biotech (Santa Cruz, Calif.)), cleaved PARP (Cell Signaling (Danvers, Mass.)), or GAPDH (Abeam (Cambridge, UK); loading control). Immune complexes were detected by incubation with appropriate horseradish peroxidase-conjugated antibodies to mouse or rabbit IgG (1:3000) and enhanced chemiluminescence (Pierce, Rockford, Ill.).

BRAFV600E = BRAFV600E (Homo sapiens, UniProt P15056, V600E); test: In-vitro binding affinity of MBZ (FIG. 1C)
From the text: (§1) Efforts to develop drugs targeting mutant BRAF led to FDA approval of vemurafenib in 2011 and dabrafenib in 2013. […] In addition, other MAPK pathway proteins including CRAF and MEK were identified.

BRAFWT = BRAFWT (Homo sapiens, UniProt P15056); test: In-vitro binding affinity of MBZ (FIG. 1C)
From the text: as §1

BRAF = test: In-vitro kinase assay; format: biochemical
From the text: as §1

MEK = test: In-vitro kinase assay; format: biochemical
From the text: as §1

CRAF = CRAF (Homo sapiens, UniProt P04049); test: Affinity of MBZ for CRAF; format: binding
From the text: MBZ interacts with VEGFR in silico and MBZ interacts with additional kinases in vitro, including BCR-ABL and BRAF. TMFS was used to show the nature of the interactions between MBZ, and VEGFR, and with BRAFWT or BRAFV600E. […] In fact these inhibitors actually enhance growth of NRASmut/BRAFWT tumors by paradoxically further activating the MAPK pathway through induced conformational changes in wild type RAF isoforms, inducing dimerization, membrane localization, and activation by RAS.

VEGFR2 = VEGFR2 (Homo sapiens, UniProt P35968); test: MBZ potency towards VEGFR2 compared with BRAF (FIG. 1C); format: biochemical
[4] = system: BAK, BUL and STU melanoma cells; test: XTT cell viability assay, all three melanoma cell lines; format: cell-based, Human; details: 72 h
Experimental: FIGS. 2A-2C show decreased viability of melanoma cells exposed to MBZ, dabrafenib (D), trametinib (T), or combinations of T+D or MBZ+trametinib. A) BAK (BRAFWT/NRASQ61K); B) BUL (BRAFWT/NRASQ61K); and C.) STU (BRAFV600K/NRASWT) melanoma cells were exposed to the indicated concentrations of MBZ, D, T, T+D or MBZ+trametinib (T+MBZ) for 72 h, and subjected to XTT cell viability assays, as described in the Examples. Error bars represent mean±SD for triplicates. […] The results shown are based on a single experiment in triplicate; and repeated in three independent experiments with essentially the same results.
MBZ, dabrafenib, and trametinib were purchased from Sigma-Aldrich (St. Louis, Mo.) and ActiveBiochem (Maplewood, N.J.), respectively. 5×10^3 viable cells per well were plated in 96-well dishes and allowed to recover for 12 h prior to drug treatment. Cells in triplicate wells were treated for up to 72 h (based on initial time course experiments showing maximal effects at that time point) with different concentrations of trametinib, dabrafenib, or MBZ alone, or a combination of MBZ and trametinib. Negative controls were exposed to vehicle DMSO in the same volumes. Cell viability was assessed by an XTT assay, according to a manufacturer's specifications (Biotium Inc (Fremont, Calif.)). Reduced XTT was measured by absorbance at 490 nm on a PerkinElmer Victor 3 (Duluth, Ga.) plate reader. Cells exposed to detergent served as a positive control.

[5] = system: BAK (BRAFWT/NRASQ61K) melanoma cells; test: XTT cell viability assay; format: cell-based; details: Homo sapiens; cultured NRAS cells, FIG. 2A; read-out: IC80 (equivalent to patient mean peak plasma concentration)
Experimental: MBZ, dabrafenib, and trametinib were purchased from Sigma-Aldrich (St. Louis, Mo.) and ActiveBiochem (Maplewood, N.J.), respectively. […] Cell viability was assessed by an XTT assay, according to a manufacturer's specifications (Biotium Inc (Fremont, Calif.)). Reduced XTT was measured by absorbance at 490 nm on a PerkinElmer Victor 3 (Duluth, Ga.) plate reader. […]
The results shown are based on a single experiment in triplicate, and repeated in three independent experiments with essentially the same results. […] For determining synergism, the combination index (τ) was calculated from single dose-response curves and combination experiments as τ=xA/XA+xB/XB, in which, for a given cytotoxic effect, xA and xB are the concentrations of drugs A and B in the combination, and XA and XB are the concentrations of drugs A and B that achieve the same cytotoxic effect when given alone. […]

[6] = system: patient-derived metastatic melanoma cells harboring a BRAFWT/NRASQ61K mutation profile; test: Treatment of patient-derived metastatic melanoma cells (FIG. 7); format: cell-based, Human
From the text: In additional studies, patient-derived cells harboring a BRAFWT/NRASQ61K mutation profile were separated into CD133+ populations and CD133− populations.

[7] = system: BAK (BRAFWT/NRASQ61K) melanoma xenografts; test: Mouse xenografting, tumor growth; format: in vivo, athymic mice; details: oral gavage; MBZ 40 mg/kg/qad, trametinib 0.1 or 3 mg/kg/qd
Experimental: Athymic mice were injected with 3×10^6 BAK melanoma cells, and tumors were allowed to grow to a volume of 100 mm^3. Animals were then gavaged with vehicle emulsion control, 40 mg/kg/qad (every other day) MBZ, low dose trametinib (LDT; 0.1 mg/kg/qd (once a day)), high dose trametinib (HDT; 3 mg/kg/qd) or a combination of MBZ and LDT or HDT, A) Tumor widths and lengths were measured and volumes calculated as w2×l/2, where width is defined as the smaller of the tumor dimensions. Time 0 is the tumor volume on the first day of treatment; tumor sizes were normalized to their size at time 0 of drug treatment. B) Mice were weighed every other day and body weights (g) plotted over time. […]
Athymic 6-week old male mice (Taconic (Hudson, N.Y.)) were acclimated to the Division of Comparative Medicine at Georgetown University a week prior to xenografting. […] Tumor growth was measured with calipers, and drug treatment started when tumor volumes reached 100 mm^3, after which mice were monitored daily for drug efficacy, as well for adverse effects, including weight and behavior. […] Each tumor from each treatment group was measured on indicated days, and all tumor sizes were then normalized to their size at day 0 of drug treatment. […] The results were expressed as the mean (±SD) of tumor volume in each group.

[8] = system: MEK1/2 and ERK1/2 phosphorylation; test: Immunoblot analysis of xenograft tumor extracts; format: in vivo, athymic mice; details: tumors collected at termination of experiment; combination is HDT+MBZ
Experimental: Athymic mice were injected with 3×10^6 BAK melanoma cells, and tumors were allowed to grow to a volume of 100 mm^3. […] Time 0 is the tumor volume on the first day of treatment; tumor sizes were normalized to their size at time 0 of drug treatment. B) Mice were weighed every other day and body weights (g) plotted over time. Data from four experiments were combined for statistical analysis, to compare every mouse from each treatment group. The total mice for all experiments included vehicle control (n=13), LDT (n=12), MBZ (n=12), HDT (n=12), LDT+MBZ (n=12), and HDT+MBZ (n=15). The results are shown as the mean (+SD) of tumor volume in each group. C) and D) ERK and MEK phosphorylation was suppressed in large (C) or small (D) tumor xenografts from mice treated with T+MBZ. Tumor extracts were derived from xenografts, then subjected to immunoblot analysis using antibodies specific for total BRAT, phospho-BRAF, ERK1/2, phospho-ERK1/2, total MEK1/2, phospho-MEK1/2, or GAPDH as a loading control. SDS-PAGE and transfer of separated proteins to nitrocellulose membranes were performed according to standard procedures. […] Immune complexes were detected by incubation with appropriate horseradish peroxidase-conjugated antibodies to mouse or rabbit IgG (1:3000) and enhanced chemiluminescence (Pierce, Rockford, Ill.).

[9] = system: MEK/ERK pathway in BAK NRASQ61K melanoma cells; test: Reverse-phase protein array (RPPA); format: cell-based, Human; details: 10 nM or 100 nM; 1, 8 or 24 h
Experimental: Cell lysates were analyzed by reverse-phase protein array (RPPA). Samples were diluted to 0.5 mg/mL and dilutions printed on slides in triplicate. Slides were immunostained with 137 different antibodies specific for total proteins, or phosphorylated or cleaved products. […] Intensity values were normalized to that of total protein for each sample stained with Sypro Ruby (Invitrogen Carlsbad, Calif.)). Unsupervised cluster analysis http://www.hiv.1an1.ov/content/sequence/HEATMAP/heatmap.html was performed for all proteins in the RPPA using the standard bootstrap method.
Given the potential changes in tumor cell signaling and survival over the long time course of the xenografts, potential mechanisms by which MBZ+trametinib exerts its cytotoxic effects were examined using cultured BAK NRASQ61K melanoma cells. Cells were exposed to MBZ (10 nM or 100 nM), trametinib (10 nM or 100 nM), or a combination of the two for 1, 8, or 24 h, after which cell extracts were subjected to reverse-phase protein array (RPPA) analysis.

[10] = 10 mg/kg/day, chronic MBZ; cited from earlier work

Chain of CRAF (P04049 whole entry, canonical isoform): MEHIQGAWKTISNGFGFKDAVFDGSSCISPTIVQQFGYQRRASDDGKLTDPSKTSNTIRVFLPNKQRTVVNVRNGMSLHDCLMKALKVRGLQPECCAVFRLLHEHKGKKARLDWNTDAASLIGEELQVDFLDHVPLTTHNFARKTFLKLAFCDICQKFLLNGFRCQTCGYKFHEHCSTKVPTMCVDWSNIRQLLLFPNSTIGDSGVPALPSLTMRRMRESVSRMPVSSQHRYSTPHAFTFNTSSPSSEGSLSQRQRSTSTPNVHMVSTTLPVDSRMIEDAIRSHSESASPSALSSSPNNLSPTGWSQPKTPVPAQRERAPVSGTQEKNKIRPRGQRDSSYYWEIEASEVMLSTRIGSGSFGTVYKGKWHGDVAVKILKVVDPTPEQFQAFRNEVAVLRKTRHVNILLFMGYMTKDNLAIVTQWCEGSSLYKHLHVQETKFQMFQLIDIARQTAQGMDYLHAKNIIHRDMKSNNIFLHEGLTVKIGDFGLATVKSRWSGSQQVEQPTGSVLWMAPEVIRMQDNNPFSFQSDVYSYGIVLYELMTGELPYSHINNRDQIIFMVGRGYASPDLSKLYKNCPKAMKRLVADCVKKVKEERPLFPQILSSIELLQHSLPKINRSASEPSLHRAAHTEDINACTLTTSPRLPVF
Chain of BRAFWT (P15056 whole entry): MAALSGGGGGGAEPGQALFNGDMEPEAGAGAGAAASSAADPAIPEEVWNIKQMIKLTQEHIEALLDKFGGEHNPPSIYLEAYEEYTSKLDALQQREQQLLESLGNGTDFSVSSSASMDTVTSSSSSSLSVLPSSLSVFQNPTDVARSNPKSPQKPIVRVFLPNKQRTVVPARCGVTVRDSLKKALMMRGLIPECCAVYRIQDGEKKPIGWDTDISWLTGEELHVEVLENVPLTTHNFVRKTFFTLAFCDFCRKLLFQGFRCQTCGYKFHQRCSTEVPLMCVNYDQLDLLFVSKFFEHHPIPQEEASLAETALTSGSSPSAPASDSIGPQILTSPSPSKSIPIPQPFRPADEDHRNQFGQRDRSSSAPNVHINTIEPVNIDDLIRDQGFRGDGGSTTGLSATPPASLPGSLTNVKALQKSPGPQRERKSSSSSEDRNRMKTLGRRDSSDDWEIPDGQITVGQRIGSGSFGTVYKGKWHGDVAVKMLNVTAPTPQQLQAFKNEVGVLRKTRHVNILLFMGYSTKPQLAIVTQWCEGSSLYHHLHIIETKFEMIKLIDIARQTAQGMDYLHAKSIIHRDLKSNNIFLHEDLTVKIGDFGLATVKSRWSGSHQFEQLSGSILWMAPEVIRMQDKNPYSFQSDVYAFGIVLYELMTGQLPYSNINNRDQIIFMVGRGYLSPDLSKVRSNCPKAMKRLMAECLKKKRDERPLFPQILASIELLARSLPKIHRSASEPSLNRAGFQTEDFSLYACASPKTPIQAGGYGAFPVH
Chain of BRAFV600E (P15056 whole entry V600E): as the sequence (P15056 whole entry) above, with V600E counted along it
Chain of VEGFR2 (P35968 20-1356): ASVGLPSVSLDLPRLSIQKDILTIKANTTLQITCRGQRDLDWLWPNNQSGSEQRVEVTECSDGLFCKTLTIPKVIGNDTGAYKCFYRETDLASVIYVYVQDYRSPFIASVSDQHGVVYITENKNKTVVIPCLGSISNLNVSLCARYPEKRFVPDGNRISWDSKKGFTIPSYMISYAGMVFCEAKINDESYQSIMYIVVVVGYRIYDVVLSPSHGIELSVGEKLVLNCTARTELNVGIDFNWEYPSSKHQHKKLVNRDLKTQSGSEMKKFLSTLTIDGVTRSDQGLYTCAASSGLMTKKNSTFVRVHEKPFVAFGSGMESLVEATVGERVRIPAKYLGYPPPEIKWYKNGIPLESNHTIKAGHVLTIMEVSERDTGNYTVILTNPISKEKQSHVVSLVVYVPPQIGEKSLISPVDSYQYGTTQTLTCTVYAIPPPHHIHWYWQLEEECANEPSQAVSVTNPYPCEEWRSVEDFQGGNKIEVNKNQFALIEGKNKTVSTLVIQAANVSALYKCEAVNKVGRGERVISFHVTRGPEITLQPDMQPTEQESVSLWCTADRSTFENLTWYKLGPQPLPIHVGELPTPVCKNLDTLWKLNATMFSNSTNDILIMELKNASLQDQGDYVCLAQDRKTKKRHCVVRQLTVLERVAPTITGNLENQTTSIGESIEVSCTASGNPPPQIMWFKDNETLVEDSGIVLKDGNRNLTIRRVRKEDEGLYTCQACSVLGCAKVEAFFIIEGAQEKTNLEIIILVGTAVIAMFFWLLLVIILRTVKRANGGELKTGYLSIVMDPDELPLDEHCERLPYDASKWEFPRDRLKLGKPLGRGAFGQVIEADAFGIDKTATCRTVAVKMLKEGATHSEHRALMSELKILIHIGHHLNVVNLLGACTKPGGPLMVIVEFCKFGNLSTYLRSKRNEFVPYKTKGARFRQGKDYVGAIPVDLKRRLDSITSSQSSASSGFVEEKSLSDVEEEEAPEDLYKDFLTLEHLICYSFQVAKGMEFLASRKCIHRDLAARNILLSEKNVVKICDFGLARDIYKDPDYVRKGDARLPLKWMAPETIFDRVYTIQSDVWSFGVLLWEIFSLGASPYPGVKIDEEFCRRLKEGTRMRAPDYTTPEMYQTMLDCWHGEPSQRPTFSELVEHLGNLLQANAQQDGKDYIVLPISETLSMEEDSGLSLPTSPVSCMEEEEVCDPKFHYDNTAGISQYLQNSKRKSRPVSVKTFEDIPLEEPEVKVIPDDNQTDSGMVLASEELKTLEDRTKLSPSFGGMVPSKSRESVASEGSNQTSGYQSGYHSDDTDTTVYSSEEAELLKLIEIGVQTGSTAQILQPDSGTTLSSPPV

In the case of `COC(=O)Nc1nc2ccc(C(O)c3ccccc3)cc2[nH]1` (racemic) [RDM, rac Dihydro MBZ], the “mean plasma exposure at 8 hours” value ([1]; methylcellulose formulation) is reported as 57 ng/mL, the “mean plasma exposure at 8 hours” value ([1]; oleic acid formulation) is reported as 543 ng/mL and the “lower exposure with trametinib co-administration vs. methylcellulose” value [2] is reported as “did not alter”.
For `CC(=O)Nc1cccc(-n2c(=O)n(C3CC3)c(=O)c3c(Nc4ccc(I)cc4F)n(C)c(=O)c(C)c32)c1` [trametinib], the “pMEK1/2 S217/221 phosphorylation” value [3] was “not inhibited”.
With `COC(=O)Nc1nc2ccc(C(=O)c3ccccc3)cc2[nH]1` [MBZ, methyl N-[6-(benzoyl)-1H-benzimidazol-2-yl] carbamate] the Kd (BRAFV600E) was 0.21 µM, the Kd (BRAFWT) was 0.23 µM and the “inhibition of kinase activity by MBZ” value (BRAF) was “nM range”. The “inhibition of kinase activity by MBZ” value (MEK) was “nM range”, the “affinity for CRAF” value (CRAF) was “very low affinity” and the “potency towards BRAF versus VEGFR2” value (VEGFR2) was “more potency towards BRAF”. The “cytotoxicity as single agent” value [4] was “weak cytotoxic activity”, the “concentration at which significant growth inhibition was observed” value ([4]; 2-way ANOVA) was at least 10 nM and the IC80 [5] was about 0.47 µM. For the same molecule, the sensitivity to treatment [6] was “sensitivity”, the concentration at 8 h ([1]; methylcellulose formulation) was 473 ng/mL and the concentration at 8 h ([1]; oleic acid formulation) was 1390 ng/mL. For the same molecule, the “difference in exposure between formulations or combinations” value ([1]; one hour, P>0.05 Kruskal-Wallis) was “no difference”, the tumor growth [7] was “did not work as a monotherapy” and the “MEK1/2 and ERK1/2 phosphorylation in tumors” value [8] was “suppress MEK and ERK phosphorylation”. The “ERK1/2 (T202/Y204) phosphorylation” value ([3]; combination undetectable by 30 min) was “diminished”, the “pMEK1/2 S217/221 phosphorylation” value [3] was “not inhibited” and the “phosphorylation of proteins associated with the MEK/ERK pathway” value [9] was “down-regulated”. The “lower exposure with trametinib co-administration vs. methylcellulose” value [2] was “did not alter”, the “mean peak plasma level” value [10] was 470 nM and the “peak plasma level, variability between patients” value [10] was 0.34 to 1.69 µM.
For `CC(C)(C)c1nc(-c2cccc(NS(=O)(=O)c3c(F)cccc3F)c2F)c(-c2ccnc(N)n2)s1` [dabrafenib], the “cytotoxicity as single agent” value [4] was “resistance”.
In the case of `Nc1nc2cc(C(=O)c3ccccc3)ccc2[nH]1` [2ABB, 2-Amino-5-benzoyl-1H bezimidizole], the “mean plasma exposure at 8 hours” value ([1]; methylcellulose formulation) is reported as 425 ng/mL, the “mean plasma exposure at 8 hours” value ([1]; oleic acid formulation) is reported as 427 ng/mL and the “lower exposure with trametinib co-administration vs. methylcellulose” value [2] is reported as about 45%. The “mean plasma exposure at 8 hours” value ([2]; trametinib co-administration) was 242 ng/mL.
